{
  "source": "patent US7342011B2",
  "about": "“Rifamycin analogs and uses thereof” (priority 2003, dated 2008)",
  "data": [
    {"system": "E. coli", "experiment": "MIC assay, E. coli", "type": "cell-based", "units": {"MIC (μg/mL) E. coli": "µg/mL"}, "values": [
      {"molecule": "COC1C=COC2(C)Oc3c(C)c(O)c4c(=O)c(c5oc6cc(N7CC8C(C7)C8N(C)C)cc(O)c6nc-5c4c3C2=O)NC(=O)C(C)=CC=CC(C)C(O)C(C)C(O)C(C)C(O)C1C", "note": "[Compound 54, 3′-hydroxy-5′-[6-N,N-dimethylamino-(1R,5S)-3-azabicyclo[3.1.0]hex-3-yl]benzoxazinorifamycin]", "MIC (μg/mL) E. coli": ">8"},
      {"molecule": "CO[C@H]1/C=C/O[C@@]2(C)Oc3c(C)c(O)c4c(=O)c(c5oc6cc(N7CCC(NS(C)(=O)=O)CC7)cc(O)c6nc-5c4c3C2=O)NC(=O)/C(C)=C\\C=C\\[C@H](C)[C@H](O)[C@@H](C)[C@@H](O)[C@@H](C)[C@H](OC(C)=O)[C@@H]1C", "note": "[Compound 25]", "MIC (μg/mL) E. coli": ">8"},
      {"molecule": "CO[C@H]1/C=C/O[C@@]2(C)Oc3c(C)c(O)c4c(=O)c(c5oc6cc(N7CCC(N8CCOCC8)CC7)cc(O)c6nc-5c4c3C2=O)NC(=O)/C(C)=C\\C=C\\[C@H](C)[C@H](O)[C@@H](C)[C@@H](O)[C@@H](C)[C@H](O)[C@@H]1C", "note": "[Compound 11, 25-O-deacetyl-3′-hydroxy-5′-(4-morpholinyl-1-piperidinyl)benzoxazinorifamycin]", "MIC (μg/mL) E. coli": 4},
      {"molecule": "CCCC(=O)NC1CCN(c2cc(O)c3nc4c5c6c7c(C)c(O)c5c(=O)c(c-4oc3c2)NC(=O)/C(C)=C\\C=C\\[C@H](C)[C@H](O)[C@@H](C)[C@@H](O)[C@@H](C)[C@H](OC(C)=O)[C@H](C)[C@@H](OC)/C=C/O[C@@](C)(O7)C6=O)CC1", "note": "[Compound 24, 3′-hydroxy-5′-[4-butanamide-1-piperidinyl]benzoxazinorifamycin]", "MIC (μg/mL) E. coli": ">8"},
      {"molecule": "CO[C@H]1/C=C/O[C@@]2(C)Oc3c(C)c(O)c4c(=O)c(c5oc6cc(N7CCC(N(C)C)CC7)cc(O)c6nc-5c4c3C2=O)NC(=O)/C(C)=C\\C=C\\[C@H](C)[C@H](O)[C@@H](C)[C@@H](O)[C@@H](C)[C@H](O)[C@@H]1C", "note": "[Compound 18, 25-O-deacetyl-3′-hydroxy-5′-(4-N,N dimethylamino-1-piperidinyl)benzoxazinorifamycin]", "MIC (μg/mL) E. coli": 4},
      {"molecule": "CO[C@H]1/C=C/O[C@@]2(C)Oc3c(C)c(O)c4c(=O)c(c5oc6cc(N7C[C@H]8CCCN[C@H]8C7)cc(O)c6nc-5c4c3C2=O)NC(=O)/C(C)=C\\C=C\\[C@H](C)[C@H](O)[C@@H](C)[C@@H](O)[C@@H](C)[C@H](O)[C@@H]1C", "note": "[Compound 15, 25-O-deacetyl-3′-hydroxy-5′-[(4aR,7aR)-octahydro-6H-pyrrolo[3,4-b]pyridin-6-yl]benzoxazinorifamycin]", "MIC (μg/mL) E. coli": ">8"},
      {"molecule": "COC1C=COC2(C)Oc3c(C)c(O)c4c(=O)c(c5oc6cc(N7CC8C(C7)C8N(C)C)cc(O)c6nc-5c4c3C2=O)NC(=O)C(C)=CC=CC(C)C(O)C(C)C(O)C(C)C(OC(C)=O)C1C", "note": "[Compound 53, 3′-hydroxy-5′-[6-N,N-dimethylamino-(1R,5S)-3-azabicyclo[3.1.0]hex-3-yl]benzoxazinorifamycin]", "MIC (μg/mL) E. coli": ">8"},
      {"molecule": "CO[C@H]1/C=C/O[C@@]2(C)Oc3c(C)c(O)c4c(=O)c(c5oc6cc(N7C[C@@H]8CCCN[C@@H]8C7)cc(O)c6nc-5c4c3C2=O)NC(=O)/C(C)=C\\C=C\\[C@H](C)[C@H](O)[C@@H](C)[C@@H](O)[C@@H](C)[C@H](O)[C@@H]1C", "note": "[Compound 7, 25-O-deacetyl-3′-hydroxy-5′-[(4aS,7aS)-octahydro-6H-pyrrolo[3,4-b]pyridin-6-yl]benzoxazinorifamycin]", "MIC (μg/mL) E. coli": ">8"},
      {"molecule": "COC1C=COC2(C)Oc3c(C)c(O)c4c(=O)c(c5oc6cc(N7CC8C(N)C8C7)cc(O)c6nc-5c4c3C2=O)NC(=O)C(C)=CC=CC(C)C(O)C(C)C(O)C(C)C(OC(C)=O)C1C", "note": "[Compound 4, 3′-hydroxy-5′-[6-amino-(1R,5S)-3-azabicyclo[3.1.0]hex-3-yl]benzoxazinorifamycin]", "MIC (μg/mL) E. coli": ">8"},
      {"molecule": "CCCNC(=O)NC1CCN(c2cc(O)c3nc4c5c6c7c(C)c(O)c5c(=O)c(c-4oc3c2)NC(=O)/C(C)=C\\C=C\\[C@H](C)[C@H](O)[C@@H](C)[C@@H](O)[C@@H](C)[C@H](OC(C)=O)[C@H](C)[C@@H](OC)/C=C/O[C@@](C)(O7)C6=O)CC1", "note": "[Compound 28, 3′-hydroxy-5′-[4-propyluryl-1-piperidinyl]benzoxazinorifamycin]", "MIC (μg/mL) E. coli": ">8"},
      {"molecule": "COCCOC(=O)NC1CCN(c2cc(O)c3nc4c5c6c7c(C)c(O)c5c(=O)c(c-4oc3c2)NC(=O)C(C)=CC=CC(C)C(O)C(C)C(O)C(C)C(O)C(C)C(OC)C=COC(C)(O7)C6=O)CC1", "note": "(stereo not shown) [Compound 63, 25-O-deacetyl-3′-hydroxy-5′-[4-methoxyethylcarbamyl-1-piperidinyl]benzoxazinorifamycin]", "MIC (μg/mL) E. coli": 8},
      {"molecule": "CO[C@H]1/C=C/O[C@@]2(C)Oc3c(C)c(O)c4c(=O)c(c5oc6cc(N7CCC(NS(=O)(=O)C(F)(F)F)CC7)cc(O)c6nc-5c4c3C2=O)NC(=O)/C(C)=C\\C=C\\[C@H](C)[C@H](O)[C@@H](C)[C@@H](O)[C@@H](C)[C@H](OC(C)=O)[C@@H]1C", "note": "[Compound 23]", "MIC (μg/mL) E. coli": ">8"},
      {"molecule": "CO[C@H]1/C=C/O[C@@]2(C)Oc3c(C)c(O)c4c(=O)c(c5oc6cc(N7C[C@@H]8CCCN[C@@H]8C7)cc(O)c6nc-5c4c3C2=O)NC(=O)/C(C)=C\\C=C\\[C@H](C)[C@H](O)[C@@H](C)[C@@H](O)[C@@H](C)[C@H](OC(C)=O)[C@@H]1C", "note": "[Compound 5, 3′-hydroxy-5′-[(4aS,7aS)-octahydro-6H-pyrrolo[3,4-b]pyridin-6-yl]benzoxazinorifamycin]", "MIC (μg/mL) E. coli": 8},
      {"molecule": "CCCS(=O)(=O)NC1CCN(c2cc(O)c3nc4c5c6c7c(C)c(O)c5c(=O)c(c-4oc3c2)NC(=O)C(C)=CC=CC(C)C(O)C(C)C(O)C(C)C(O)C(C)C(OC)C=COC(C)(O7)C6=O)CC1", "note": "(stereo not shown) [Compound 67]", "MIC (μg/mL) E. coli": ">8"},
      {"molecule": "CO[C@H]1/C=C/O[C@@]2(C)Oc3c(C)c(O)c4c(=O)c(c5oc6cc(N7CCC(NC(=O)OC(C)C)CC7)cc(O)c6nc-5c4c3C2=O)NC(=O)/C(C)=C\\C=C\\[C@H](C)[C@H](O)[C@@H](C)[C@@H](O)[C@@H](C)[C@H](OC(C)=O)[C@@H]1C", "note": "[Compound 22]", "MIC (μg/mL) E. coli": ">8"},
      {"molecule": "CO[C@H]1/C=C/O[C@@]2(C)Oc3c(C)c(O)c4c(=O)c(c5oc6cc(N7CC8CCC(C7)N8)cc(O)c6nc-5c4c3C2=O)NC(=O)/C(C)=C\\C=C\\[C@H](C)[C@H](O)[C@@H](C)[C@@H](O)[C@@H](C)[C@H](O)[C@@H]1C", "note": "[Compound 16, 25-O-deacetyl-3′-hydroxy-5′-(3,8-diazabicyclo[3.2.1]octan-3-yl)benzoxazinorifamycin]", "MIC (μg/mL) E. coli": 4},
      {"molecule": "COC1C=COC2(C)Oc3c(C)c(O)c4c(=O)c(c5oc6cc(N7CCC(CNC(C)=O)CC7)cc(O)c6nc-5c4c3C2=O)NC(=O)C(C)=CC=CC(C)C(O)C(C)C(O)C(C)C(O)C1C", "note": "(stereo not shown) [Compound 56, 25-O-deacetyl-3′-hydroxy-5′-[4-acetylaminomethyl-1-piperidinyl]benzoxazinorifamycin]", "MIC (μg/mL) E. coli": 8},
      {"molecule": "25-O-deacetyl-5′-[(8aR)octahydropyrrolo[1,2-a]pyrazin-2-yl]benzthiazinorifamycin [Compound 78]", "MIC (μg/mL) E. coli": 4},
      {"molecule": "CO[C@H]1/C=C/O[C@@]2(C)Oc3c(C)c(O)c4c(=O)c(c5oc6cc(N7CCC(N(C)C)CC7)cc(O)c6nc-5c4c3C2=O)NC(=O)/C(C)=C\\C=C\\[C@H](C)[C@H](O)[C@@H](C)[C@@H](O)[C@@H](C)[C@H](OC(C)=O)[C@@H]1C", "note": "[Compound 17, 3′-hydroxy-5′-(4-N,N-dimethylamino-1-piperidinyl)benzoxazinorifamycin]", "MIC (μg/mL) E. coli": 8}
    ]}
  ]
}
